Experimental data reported in US8546389B2 (priority 2010, dated 2013).
Like-named read-outs stand apart in the source and are kept apart here.

Experiments:
[1] = molecular target: 1b (BK) NS5bΔ21 (Hepatitis C virus genotype 1b (isolate BK) (HCV), UniProt P26663); assay: HCV polymerase inhibition assay, genotype 1b; type: biochemical, HCV genotype 1b (BK)
How it was run: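 Both genotype 1b and 3a enzymes assayed identically: ^33P-GTP incorporation on poly(rC) template, GTP at Km, 50 nM NS5bΔ21, pH 7.5 Tris with 5 mM MgCl2 and MnCl2, 1 h reaction ended by cold EDTA. Filter-bound label counted; IC50 fitted by non-linear regression across three-fold dilution series.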

[2] = molecular target: genotype 3a (VRL-69) NS5bΔ21 polymerase (Hepatitis C virus genotype 3a, UniProt Q81258); assay: HCV polymerase inhibition assay, genotype 3a; type: biochemical, HCV genotype 3a (VRL-69); settings: genotype 3a; read-out: 3a NS5b polymerase IC50
Description: HCV polymerase reactions were carried out using a modified method of Howe et al., Antimicrobial Agents and Chemotherapy 2004 48(12): 4813-4821. Reactions contained a final concentration of, 0.5% DMSO, 50 nM, 1b (BK) NS5bΔ21, 20 mM Tris-HCl pH 7.5, 5 mM MgCl2, 5 mM MnCl2, 3 mM DTT, 0.05% BSA, 0.2 U/μL RNasin, 10 μg/mL Poly(rC) template, GTP (at Km) and 0.05 μCi/μL ^33P-GTP in a total reaction volume of 50 μL. Compounds were tested in a three fold dilution series, for example starting from 50 μM. Reactions were initiated with the addition of GTP and terminated after 1 hour with 50 μL ice cold 0.2 M EDTA. Terminated reactions were transferred to DEAE 96-well filter plates, unincorporated nucleotides washed from the filters and 50 μL scintillation fluid added prior to reading on a scintillation counter. Similarly, a genotype 3a (VRL-69) NS5bΔ21 polymerase enzyme assay was conducted using essentially the same method.
The compound concentration that reduced ^33P-GTP incorporation by 50% (IC50) was calculated using non-linear regression.

[3] = tested on: genotype 1b (Con 1) subgenomic replicon cell line; assay: HCV replicon assay, genotype 1b (Renilla luciferase); type: cell-based, HCV genotype 1b (Con 1); settings: Hepatitis C virus, genotype 1b replicon
How it was run: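 Subgenomic replicon cells expressing Renilla luciferase (1b Con1; 1a and 2a lines by the same method) seeded at 7000 cells/well (5000 for 2a) without G418, exposed to 3-fold compound dilutions for 72 h at 37 °C. Luciferase activity measured; EC50 by non-linear regression.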

[4] = tested on: subgenomic genotype 1a replicon cell line; assay: HCV replicon assay, genotype 1a; type: cell-based, HCV genotype 1a; settings: Hepatitis C virus
Description: (§1) A genotype 1b (Con 1) subgenomic replicon cell line based on Blight et al., Science 2000 290: 1972-1974, modified to express a Renilla luciferase reporter gene was used to assess antiviral activity of test compounds. Cell cultures were maintained in a sub-confluent state in DMEM with glutamine, 10% heat-inactivated foetal bovine serum (FBS) and G418 (Geneticin®).
(§2) For assay, cells were seeded at a density of 7000 cells/well into 96 well tissue culture trays in culture media lacking G418. Compounds were tested in a three fold dilution series, for example starting from 50 uM. After 72 hours incubation at 37° C. and 5% CO2, Renilla luciferase activity was quantified via the Promega Renilla Luciferase or Renilla-Glo™ Luciferase Assay Systems (Promega corporation. The same method was employed for replicon assays using subgenomic genotype 1a and 2a replicon cell lines with a seeding cell density of 5000 cells/well for the 2a cell lines.
(§3) The compound concentration that reduced luciferase activity by 50% (EC50) was calculated using non-linear regression.

[5] = tested on: subgenomic genotype 2a replicon cell line; assay: HCV replicon assay, genotype 2a; type: cell-based, HCV genotype 2a; settings: Hepatitis C virus
Description: as §1, §2, §3

[6] = 1b (BK) NS5bΔ21, 33P-GTP incorporation, read-out: 1b polymerase IC50 (range class)
[7] = genotype 1b, read-out: 1b NS5b polymerase IC50
[8] = 72 hours, luciferase, read-out: genotype 1b EC50 (range class)

Sequence of genotype 3a (VRL-69) NS5bΔ21 polymerase (Q81258 whole entry, looked up, stated change not applied): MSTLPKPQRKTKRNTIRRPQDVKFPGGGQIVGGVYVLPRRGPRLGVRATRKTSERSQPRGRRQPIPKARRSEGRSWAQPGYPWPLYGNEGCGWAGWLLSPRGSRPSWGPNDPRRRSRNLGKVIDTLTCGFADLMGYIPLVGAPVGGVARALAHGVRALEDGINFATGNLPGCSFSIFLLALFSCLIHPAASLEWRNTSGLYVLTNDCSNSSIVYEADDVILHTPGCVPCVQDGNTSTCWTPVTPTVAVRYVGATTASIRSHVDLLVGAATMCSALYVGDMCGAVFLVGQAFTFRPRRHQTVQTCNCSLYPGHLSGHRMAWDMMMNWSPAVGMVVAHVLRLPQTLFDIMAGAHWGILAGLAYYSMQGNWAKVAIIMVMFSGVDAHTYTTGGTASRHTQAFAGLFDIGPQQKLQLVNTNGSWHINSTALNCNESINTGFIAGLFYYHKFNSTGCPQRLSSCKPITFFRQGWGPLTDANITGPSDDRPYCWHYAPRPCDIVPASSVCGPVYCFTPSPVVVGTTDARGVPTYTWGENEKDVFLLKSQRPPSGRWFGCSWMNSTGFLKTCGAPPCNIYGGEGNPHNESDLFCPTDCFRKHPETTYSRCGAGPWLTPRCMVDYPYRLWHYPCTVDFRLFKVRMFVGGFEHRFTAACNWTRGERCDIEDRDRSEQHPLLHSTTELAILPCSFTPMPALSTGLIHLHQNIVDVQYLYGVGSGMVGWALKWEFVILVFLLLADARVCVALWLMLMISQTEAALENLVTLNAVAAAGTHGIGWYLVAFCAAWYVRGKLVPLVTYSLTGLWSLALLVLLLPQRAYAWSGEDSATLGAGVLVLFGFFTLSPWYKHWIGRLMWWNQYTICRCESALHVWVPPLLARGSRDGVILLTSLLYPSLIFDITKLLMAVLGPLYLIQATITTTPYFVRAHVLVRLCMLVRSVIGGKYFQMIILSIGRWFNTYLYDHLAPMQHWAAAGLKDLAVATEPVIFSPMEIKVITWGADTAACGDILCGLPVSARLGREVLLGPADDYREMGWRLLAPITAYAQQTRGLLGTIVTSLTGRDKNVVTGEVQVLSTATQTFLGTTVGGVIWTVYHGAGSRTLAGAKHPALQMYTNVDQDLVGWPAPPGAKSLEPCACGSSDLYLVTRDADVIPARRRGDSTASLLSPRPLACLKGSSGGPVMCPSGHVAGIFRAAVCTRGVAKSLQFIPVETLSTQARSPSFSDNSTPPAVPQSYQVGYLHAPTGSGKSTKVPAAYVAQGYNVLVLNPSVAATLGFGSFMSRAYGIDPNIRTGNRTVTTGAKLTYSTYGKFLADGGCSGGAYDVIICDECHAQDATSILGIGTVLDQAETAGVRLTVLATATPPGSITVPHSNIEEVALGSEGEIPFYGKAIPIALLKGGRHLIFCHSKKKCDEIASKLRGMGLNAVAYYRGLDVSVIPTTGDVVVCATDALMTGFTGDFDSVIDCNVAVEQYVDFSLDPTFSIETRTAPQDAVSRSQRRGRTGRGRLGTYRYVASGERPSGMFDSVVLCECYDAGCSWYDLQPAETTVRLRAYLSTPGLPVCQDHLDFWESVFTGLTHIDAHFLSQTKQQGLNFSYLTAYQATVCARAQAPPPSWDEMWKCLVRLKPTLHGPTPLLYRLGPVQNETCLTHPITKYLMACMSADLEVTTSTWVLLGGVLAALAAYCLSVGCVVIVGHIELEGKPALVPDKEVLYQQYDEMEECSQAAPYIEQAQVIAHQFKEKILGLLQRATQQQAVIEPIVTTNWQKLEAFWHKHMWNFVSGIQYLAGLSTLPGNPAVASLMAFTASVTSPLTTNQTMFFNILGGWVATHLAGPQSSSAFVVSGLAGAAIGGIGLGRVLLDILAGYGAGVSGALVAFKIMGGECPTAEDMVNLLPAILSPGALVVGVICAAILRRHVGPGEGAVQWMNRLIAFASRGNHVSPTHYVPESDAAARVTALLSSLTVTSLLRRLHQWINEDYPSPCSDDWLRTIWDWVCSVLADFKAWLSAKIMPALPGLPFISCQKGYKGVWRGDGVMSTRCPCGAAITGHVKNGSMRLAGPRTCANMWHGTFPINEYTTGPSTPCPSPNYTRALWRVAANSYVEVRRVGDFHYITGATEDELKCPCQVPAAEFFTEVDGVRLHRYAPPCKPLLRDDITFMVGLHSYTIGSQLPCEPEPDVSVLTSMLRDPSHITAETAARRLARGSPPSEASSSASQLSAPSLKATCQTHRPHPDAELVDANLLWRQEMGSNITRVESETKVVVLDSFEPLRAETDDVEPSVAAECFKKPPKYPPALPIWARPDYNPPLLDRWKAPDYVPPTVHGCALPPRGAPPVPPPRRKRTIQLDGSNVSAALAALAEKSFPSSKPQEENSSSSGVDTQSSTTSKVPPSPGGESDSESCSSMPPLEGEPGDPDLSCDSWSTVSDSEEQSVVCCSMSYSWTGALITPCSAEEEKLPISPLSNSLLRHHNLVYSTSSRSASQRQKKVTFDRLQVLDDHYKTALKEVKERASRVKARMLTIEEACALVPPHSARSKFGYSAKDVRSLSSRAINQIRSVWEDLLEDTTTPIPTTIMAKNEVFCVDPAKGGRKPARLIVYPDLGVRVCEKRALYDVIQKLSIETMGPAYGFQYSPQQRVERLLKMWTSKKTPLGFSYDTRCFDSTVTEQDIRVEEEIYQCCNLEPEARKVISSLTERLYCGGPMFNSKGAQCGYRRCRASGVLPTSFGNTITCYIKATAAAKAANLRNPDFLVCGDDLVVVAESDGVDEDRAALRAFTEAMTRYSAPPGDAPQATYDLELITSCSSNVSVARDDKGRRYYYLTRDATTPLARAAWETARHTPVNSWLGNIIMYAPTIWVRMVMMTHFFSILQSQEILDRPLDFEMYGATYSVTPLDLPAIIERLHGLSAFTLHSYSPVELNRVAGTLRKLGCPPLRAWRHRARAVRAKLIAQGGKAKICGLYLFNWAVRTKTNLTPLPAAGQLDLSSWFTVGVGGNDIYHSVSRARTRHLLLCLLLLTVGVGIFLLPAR
Sequence of 1b (BK) NS5bΔ21 (P26663 2420-2989): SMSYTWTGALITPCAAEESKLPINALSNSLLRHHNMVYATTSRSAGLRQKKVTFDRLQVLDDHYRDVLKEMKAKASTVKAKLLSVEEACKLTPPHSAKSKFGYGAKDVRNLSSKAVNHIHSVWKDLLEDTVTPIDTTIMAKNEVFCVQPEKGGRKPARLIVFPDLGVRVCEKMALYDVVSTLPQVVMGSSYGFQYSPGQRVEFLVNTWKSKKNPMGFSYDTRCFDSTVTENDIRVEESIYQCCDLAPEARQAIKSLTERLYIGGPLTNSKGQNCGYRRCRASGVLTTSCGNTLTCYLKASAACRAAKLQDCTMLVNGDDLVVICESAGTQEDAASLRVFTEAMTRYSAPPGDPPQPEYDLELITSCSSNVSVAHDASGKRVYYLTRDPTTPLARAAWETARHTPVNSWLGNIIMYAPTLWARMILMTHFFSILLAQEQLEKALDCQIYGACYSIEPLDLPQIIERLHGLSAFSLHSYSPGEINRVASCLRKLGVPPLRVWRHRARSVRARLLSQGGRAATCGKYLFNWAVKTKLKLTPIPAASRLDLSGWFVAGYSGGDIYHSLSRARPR

SMILES: CNC(=O)c1c2cc(C3CC3)c(N(CCCNC(=O)c3ccnc(OC)c3)S(C)(=O)=O)cc2nn1-c1ccc(Br)cc1 [Compound 177]
- IC50 [1, 6]: < 990 nM
- IC50 [1, 7]: 280 nM
- IC50 [2]: 60 nM
- EC50 [3, 8]: < 990 nM
- EC50 ([3]; read-out: Replicon 1b EC50): 70 nM
- EC50 [4]: 110 nM
- EC50 [5]: 310 nM

SMILES: CNC(=O)c1c2cc(C3CC3)c(N(CCCNC(=O)c3nonc3C)S(C)(=O)=O)cc2nn1-c1ccc(Br)cc1 [Compound 179]
- IC50 [1, 6]: < 990 nM
- IC50 [1, 7]: 260 nM
- IC50 [2]: 30 nM
- EC50 [3, 8]: < 990 nM
- EC50 ([3]; read-out: Replicon 1b EC50): 70 nM
- EC50 [4]: 180 nM
- EC50 [5]: 520 nM

SMILES: CNC(=O)c1c2cc(C3CC3)c(N(CCCNC(=O)c3cnn(C)c3C)S(C)(=O)=O)cc2nn1-c1ccc(Br)cc1 [Compound 180]
- IC50 [1, 6]: < 990 nM
- IC50 [1, 7]: 370 nM
- IC50 [2]: 50 nM
- EC50 [3, 8]: < 990 nM
- EC50 ([3]; read-out: Replicon 1b EC50): 140 nM
- EC50 [4]: 570 nM
- EC50 [5]: 1110 nM

SMILES: CNC(=O)c1c2cc(C3CC3)c(N(CCCNC(=O)c3cccc(OC)c3F)S(C)(=O)=O)cc2nn1-c1ccc(Br)cc1 [Compound 189]
- IC50 [1, 6]: < 990 nM
- IC50 [1, 7]: 130 nM
- IC50 [2]: 50 nM
- EC50 [3, 8]: < 990 nM
- EC50 ([3]; read-out: Replicon 1b EC50): 30 nM
- EC50 [4]: 80 nM
- EC50 [5]: 230 nM

SMILES: CNC(=O)c1c2cc(C3CC3)c(N(CCCNC(=O)c3cccnc3OC)S(C)(=O)=O)cc2nn1-c1ccc(Br)cc1 [Compound 190]
- IC50 [1, 6]: < 990 nM
- IC50 [1, 7]: 830 nM
- IC50 [2]: 40 nM
- EC50 [3, 8]: < 990 nM
- EC50 ([3]; read-out: Replicon 1b EC50): 70 nM
- EC50 [4]: 90 nM
- EC50 [5]: 430 nM

SMILES: CNC(=O)c1c2cc(C3CC3)c(N(CCCNC(=O)c3cccnc3)S(C)(=O)=O)cc2nn1-c1ccc(Br)cc1 [Compound 191]
- IC50 [1, 6]: < 990 nM
- IC50 [1, 7]: 430 nM
- IC50 [2]: 20 nM
- EC50 [3, 8]: < 990 nM
- EC50 ([3]; read-out: Replicon 1b EC50): 190 nM
- EC50 [4]: 400 nM
- EC50 [5]: 2590 nM

SMILES: CNC(=O)c1c2cc(C3CC3)c(N(CCCN3CCOCC3)S(C)(=O)=O)cc2nn1-c1ccc(Br)cc1 [Compound 200]
- IC50 [1, 6]: < 990 nM
- IC50 [1, 7]: 220 nM
- IC50 [2]: 40 nM
- EC50 [3, 8]: < 990 nM
- EC50 ([3]; read-out: Replicon 1b EC50): 170 nM
- EC50 [4]: 650 nM
- EC50 [5]: 1050 nM

SMILES: CNC(=O)c1c2cc(C3CC3)c(N(CCCNC(=O)[C@H]3CCC[C@@H]3C(=O)OC)S(C)(=O)=O)cc2nn1-c1ccc(Br)cc1 [Compound 216]
- IC50 [1, 6]: < 990 nM
- IC50 [1, 7]: 180 nM
- IC50 [2]: 20 nM
- EC50 [3, 8]: < 990 nM
- EC50 ([3]; read-out: Replicon 1b EC50): 40 nM
- EC50 [4]: 130 nM
- EC50 [5]: 680 nM

SMILES: CNC(=O)c1c2cc(C3CC3)c(N(C)S(C)(=O)=O)cc2nn1-c1ccc(Br)cc1 [Compound 234]
- IC50 [1, 6]: < 990 nM
- IC50 [1, 7]: 140 nM
- IC50 [2]: 20 nM
- EC50 [3, 8]: < 990 nM
- EC50 ([3]; read-out: Replicon 1b EC50): 80 nM
- EC50 [4]: 240 nM
- EC50 [5]: 420 nM

SMILES: CNC(=O)c1c2cc(C3CC3)c(N(CCC3COC(C)(C)OC3)S(C)(=O)=O)cc2nn1-c1ccc(Cl)cc1 [Compound 235]
- IC50 [1, 6]: < 990 nM
- IC50 [1, 7]: 90 nM
- IC50 [2]: 30 nM
- EC50 [3, 8]: < 990 nM
- EC50 ([3]; read-out: Replicon 1b EC50): 40 nM
- EC50 [4]: 280 nM
- EC50 [5]: 140 nM
